Where a name gives a salt, the structure may show the parent alone.

The subject of this experiment is LDL receptor mRNA. In words: LDL receptor mRNA levels in rat livers (Northern blot, β-actin as internal standard). Type of experiment: in vivo. As to conditions: rat liver, 30 mg/kg, 6 hours after administration; untreated control = 100%. How it is done: To test the ability of the inventive compounds to lower plasma lipid levels, the stimulation of LDL receptor mRNA production was chosen as a surrogate. Thus, in rat livers, within a few hours the LDL receptor mRNA levels are increased by the compounds of the formula I (Table I). The stimulation is in the range from 170 to 350% of the controls (control=100%).
The preparation of the mRNA was carried out according to the method of Chomczynski, P. and Sacchi, N., Anal. Biochem. 162, 156-159 (1987). In organs (such as, for example, liver), the deep-frozen tissue was homogenized on dry ice beforehand in a mortar and the mRNA was further enriched by means of Oligo dT according to standard methods (cf. Sambrook, J., Fritsch, E. F. and Maniatis, T., Molecular Cloning, second Edition, Cold Spring Harbor (1989); in this collection of methods, there are also descriptions of all further relevant molecular biology standard methods used here). Five to […] of the dissolved mRNA thus obtained were denatured according to standard methods and separated on 1% horizontal agarose gels. The mRNA was transferred to Hybond N membranes (Amersham) by means of capillary blot. The specific hybridization probe used was a partial LDL receptor cDNA clone and the internal standard a plasmid which contained a β-actin gene. Both plasmids were labeled by means of a random primer kit from Amersham up to a specific activity of 5×10^9 cpm/mg. Prehybridization, hybridization and washing of the filters were carried out by standard methods. The filters were then exposed at -70° C. on Cronex 4 films (Dupont) overnight up to 14 days in the presence of an intensifying screen and the hybridization signals were quantified using a commercial laser densitometer by means of the film-blackening intensity. The quotient of the intensity of the LDL receptor band and of the actin band was then determined as an internal standard to correct yield variations.
Liver tissue was removed and shock-frozen in liquid nitrogen. The mRNA was then isolated as described, and the relative LDL receptor mRNA levels were determined by means of the Northern blot technique. The mRNA levels of untreated control animals were set at 100%, and the stimulation of the LDL receptor mRNA in percent of the control was calculated.
Turning to `CC1(C)CN(c2ncc(C(=O)Nc3cccc(OC(F)(F)F)c3)c(N)n2)C(=O)N1` [Example 2, 4-Amino-2-(4,4-dimethylimidazolidin-2-on-1-yl)-5-(3-trifluoromethoxyphenylpyrimidine)carboxamide], the “LDL receptor mRNA (stimulation in percent of the control)” value is recorded as 250%. Then `CC1(C)CN(c2ncc(C(=O)Nc3cccc(SC(F)(F)F)c3)c(N)n2)C(=O)N1` [Example 22, 4-Amino-2-(4,4-dimethylimidazolidin-2-on-1-yl)-5-[N-(3-trifluorothiomethyl-phenyl)]pyrimidinecarboxamide-hydrochloride], with 235%; and `CC1(C)CN(c2ncc(C(=O)Nc3ccc4c(c3)OC(F)(F)C(F)(F)O4)c(N)n2)C(=O)N1` [Example 15, 4-Amino-2-(4,4-dimethylimidazolidin-2-on-1-yi)-5-[N-(2,2,3,3-tetrafluorobenzo-1,4-dioxan-6-yl)]-pyrimidinecarboxamide hydrochloride], with 242%; and `CC1(C)CN(c2ncc(C(=O)Nc3ccc4c(c3)OC(F)(F)O4)c(N)n2)C(=O)N1` [Example 14, 4-Amino-2-(4,4-dimethylimidazolidin-2-on-1-yl)-5-[N-(2,2-difluorobenzo-1,3-dioxol-5-yl)]pyrimidinecarboxamide-hydrochloride], with 250%. In the case of `CCN(C(=O)c1cnc(N2CC(C)(C)NC2=O)nc1N)c1cccc(OC(F)(F)F)c1` [Example 3, 4-Amino-2-(4,4-dimethyl-2-oxo-1-imidazolidin-2-on-1-yl)-5-[N-ethyl-N-(3-trifluoromethoxy)phenyl]pyrimidinecarboxamide hydrochloride], the “LDL receptor mRNA (stimulation in percent of the control)” value came to 235%.

In the case of `CC1(C)CN(c2ncc(C(=O)N(CC(F)(F)F)c3cccc(OC(F)(F)F)c3)c(N)n2)C(=O)N1` [Example 4, 4-Amino-2-(4,4-dimethylimidazolidin-2-on-1-yl)-5-[N-(2,2,2-trifluoroethyl)-N-(3-trifluoromethoxyphenyl)]-pyrimidinecarboxamide], the “LDL receptor mRNA (stimulation in percent of the control)” value worked out at 230%.

(Values after patent publication US5939424A, “Compounds for treating disorders of lipid metabolism and their preparation” (Hoechst Aktiengesellschaft, priority 1996, dated 1999).)
